From patent publication US20240226034A1, “Use of Terpenoids and Salicylates as Anesthetics and Analgesics” (THE REGENTS OF THE UNIVERSITY OF CALIFORNIA, priority 2021, published 2024)

Experiments:
carp = conditions: immersion; cited from earlier work
[1] = Plasma concentration during IV infusion anesthesia (LC-MS); format: in vivo, rat
Description: Lateral tail veins were catheterized in eight, 70-day-old, male, Sprague Dawley rats weighing 309±6 g. A 10% solution of L-carvone or methyl salicylate in 20% […]® was each administered IV to 8 rats (4 animals per drug treatment) by using a syringe pump at a rate of 12 mL/h. When rats lost their righting reflex and were unresponsive to a tail clamp, a midline laparotomy was performed, the abdominal aorta catheterized, and the rat exsanguinated. Blood was collected in a heparin tube and centrifuged; plasma was separated and stored in cryogenic tubes at −80° C. until analysis.
Serum calibrations were prepared by dilution of working standard solutions of methyl salicylate and L-carvone with drug-free rat serum (Innovative Research, Novi, MI, USA) to concentrations ranging from 0.05 to 500 μg/mL. Calibration curves and negative control samples were prepared fresh for each quantitative assay. In addition, quality control samples (drug-free rat serum fortified with analyte at 3-4 concentrations within the standard curve) were included as an additional check of accuracy.
Prior to analysis, 100 μL of each serum sample was diluted with 100 μL of acetonitrile (ACN):1 M acetic acid (9:1, v:v) and 50 μL of methanol to precipitate proteins. The samples were vortexed for 2 min to mix, refrigerated for 20 min, vortexed for an additional 1 min, centrifuged (4,300 rpm/3, 102 g) for 10 min at 4 °C, and 10 μL injected into the liquid chromatography tandem mass spectrometry system.
Quantitative analysis was performed on an LTQ XL Orbitrap mass spectrometer (Thermo Scientific, San Jose, CA, USA) coupled with a Waters Acquity UPLC (Milford, MA, USA). […] Detection and quantification were conducted using full-scan accurate mass from 145 to 160 (m/z). […]
The precision and accuracy of the assay was determined by assaying quality control samples in replicates (n=6). […] The technique was optimized to provide limits of quantitation of 0.5 μg/mL and 0.05 μg/mL and limits of detection of approximately 0.1 μg/mL and 0.025 μg/mL for methyl salicylate and L-carvone, respectively.

Sprague Dawley rats = assay: Another experiment: IV doses of 10% (v/v) solutions in […]; format: in vivo, rat
Description: In another experiment, a 10% (v/v) solution of methyl salicylate in […]®, and a 10% (v/v) solution of L-carvone in […]® were each tested in Sprague Dawley rats that each weighed approximately 300 g.

[2] = target: T1, NMDA receptors (rat NR1 GRIN1 and rat NR2a GRIN2A subunits) (Rattus norvegicus, UniProt P35439+Q00959); assay: Two-electrode voltage clamp of NMDA receptors expressed in Xenopus oocytes; format: cell-based; conditions: for inhibition of NMDA receptors: at the mean plasma concentration during IV infusion anesthesia in rats; for Hill coefficient, NMDA receptor inhibition: dose-response model; for effect on NMDA receptor currents: dose-response, oocytes
T1 construct: expressed in transfected cells; host or cells: Xenopus laevis oocytes (intracytoplasmic RNA injection)
T1 sequence (Q00959 20-1464 limits assumed, other chains not shown): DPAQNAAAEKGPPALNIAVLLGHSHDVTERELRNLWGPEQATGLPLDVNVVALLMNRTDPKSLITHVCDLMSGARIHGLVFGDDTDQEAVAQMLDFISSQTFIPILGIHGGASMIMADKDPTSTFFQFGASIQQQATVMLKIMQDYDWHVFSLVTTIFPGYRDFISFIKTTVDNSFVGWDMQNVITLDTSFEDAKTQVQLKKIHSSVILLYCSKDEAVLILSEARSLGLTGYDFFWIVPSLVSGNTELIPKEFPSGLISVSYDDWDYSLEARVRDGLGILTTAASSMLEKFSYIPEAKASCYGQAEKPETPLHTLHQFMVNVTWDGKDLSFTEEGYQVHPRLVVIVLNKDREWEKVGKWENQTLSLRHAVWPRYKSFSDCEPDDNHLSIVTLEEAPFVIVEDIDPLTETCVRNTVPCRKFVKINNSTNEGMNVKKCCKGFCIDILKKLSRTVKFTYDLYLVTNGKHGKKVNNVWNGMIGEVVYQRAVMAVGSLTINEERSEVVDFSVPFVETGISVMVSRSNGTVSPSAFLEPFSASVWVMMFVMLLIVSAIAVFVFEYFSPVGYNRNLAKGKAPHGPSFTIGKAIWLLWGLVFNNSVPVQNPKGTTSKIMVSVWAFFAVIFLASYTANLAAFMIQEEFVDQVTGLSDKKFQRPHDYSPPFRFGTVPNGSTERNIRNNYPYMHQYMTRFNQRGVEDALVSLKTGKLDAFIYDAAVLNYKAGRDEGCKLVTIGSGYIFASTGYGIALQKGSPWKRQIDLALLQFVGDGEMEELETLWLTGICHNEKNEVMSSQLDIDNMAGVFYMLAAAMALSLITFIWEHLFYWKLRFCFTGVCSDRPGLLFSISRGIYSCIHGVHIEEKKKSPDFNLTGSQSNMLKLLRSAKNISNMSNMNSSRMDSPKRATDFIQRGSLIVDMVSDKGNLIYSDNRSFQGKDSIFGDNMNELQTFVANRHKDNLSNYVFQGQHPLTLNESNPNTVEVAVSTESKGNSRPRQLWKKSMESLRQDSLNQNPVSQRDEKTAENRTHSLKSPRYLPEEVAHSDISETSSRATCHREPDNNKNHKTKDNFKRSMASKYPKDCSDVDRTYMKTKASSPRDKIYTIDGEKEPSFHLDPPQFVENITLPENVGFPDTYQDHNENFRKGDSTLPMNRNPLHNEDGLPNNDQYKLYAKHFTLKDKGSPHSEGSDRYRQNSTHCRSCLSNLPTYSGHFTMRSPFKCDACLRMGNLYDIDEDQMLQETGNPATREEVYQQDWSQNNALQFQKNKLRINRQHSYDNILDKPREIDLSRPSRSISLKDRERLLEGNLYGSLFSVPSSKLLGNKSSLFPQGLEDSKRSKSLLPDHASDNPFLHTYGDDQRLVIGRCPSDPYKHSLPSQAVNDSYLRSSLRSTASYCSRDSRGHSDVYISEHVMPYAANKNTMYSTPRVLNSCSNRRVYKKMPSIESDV
Description: Ovaries removed from sexually mature Xenopus laevis frogs were bluntly dissected to remove surrounding connective tissue and then digested with 0.2% type I collagenase in an oocyte Ringer's solution. Once free from thecal cells and connective tissue, individual oocytes were rinsed, sorted, and stored in a modified Barth's solution (R. Brosnan et al., Anesth. Analg. 103, (2006): 86; L. Yang, P. S. Milutinovic, R. J. Brosnan, E. I. Eger 2nd, & J. M. Sonner, Anesth. Analg. 105, (2007): 393; R. J. Brosnan, F. B. Fukushima, & T. L. Pham, Anaesth. Analg. 44, (2017): 577; A. Cenani, R. J. Brosnan, & H. K. Knych, Pharmacology 103, (2019): 10).
Heteromeric GABAA receptors were expressed in oocytes by blind intranuclear injection of 1 ng DNA encoding the human al (GABRA1) and rat B2 (GABRB2) subunits in a 1:1 ratio. NMDA receptors were expressed by intracytoplasmic injection of 5 ng RNA encoding rat NR1 (GRIN1) and rat NR2a (GRIN2A) subunits in a 1:1 ratio. Nax 1.2 channels were expressed by injection of 5 ng RNA encoding the human SCN2A gene.
Studies of NMDA receptors were carried out using equipment identical to that described for GABAA receptors. Transmembrane potential was clamped at −80 mV, and oocytes were perfused with a barium-containing FR solution (Ba-FR) which substituted equimolar BaCl2 for calcium salts and contained 0.1 mM EGTA as a calcium chelator. After 5 min, the perfusate was changed for 30 s to barium FR containing 0.1 mM glutamate plus 0.01 mM glycine (Ba-FREG) as receptor agonists which produce an NMDA receptor current greater than 99% of the maximal response. Next, Ba-FR containing the study drug was perfused for 5 min and then switched to Ba-FREG containing the same test article for 30 s. The drug was then washed out with a 5-min perfusion of Ba-FR followed by a 30-s exposure to Ba-FREG to confirm post-drug currents had returned to within 10% of pre-drug values.
The change in whole cell peak current before and during agonist exposure (for GABAA and NMDA receptors) or before and during the voltage step clamp (for Nav1.2 channels) was measured in the tracings immediately before and during drug exposure. Percent change in current was calculated as follows:
[formula] • where IB is the baseline pre-drug current peak and ID is the drug current peak. For each drug and ion channel, data were fit to a Hill equation using nonlinear regression with sequential quadratic programming and bootstrap estimates of parameter standard errors (SPSS, v. 27; IBM, Armonk, NY, USA). In the model, maximum drug inhibition (Imax) was constrained to not be less than −100%. Initial parameter estimates were seeded with values based on visual inspection of respective dose-response curves in order to facilitate model convergence.

[3] = Sprague Dawley, rat, in vivo, iv

COC(=O)c1ccccc1O [methyl salicylate]
bath concentration causing anesthesia (carp): 0.8 to 2.3 mM | mean plasma concentration (±SEM) during IV infusion ([1]; male, Sprague Dawley, rat, in vivo, iv): 2700 ± 400 µM | duration of loss of righting reflex (Sprague Dawley rats; 0.2 mL IV): 30 s | time to ambulatory after return of righting (Sprague Dawley rats; 0.2 mL IV): 40 s | time to loss of righting reflex (Sprague Dawley rats; 0.2 mL IV): ≤ 25 s | time to loss of righting (Sprague Dawley rats; 0.4 mL IV): 15 s | time from apnea to confirmed cardiac arrest (Sprague Dawley rats; [3]): less than 1 minutes | time from loss of righting to apnea (Sprague Dawley rats; [3]): 5 s | gross necropsy performed 2 days later (Sprague Dawley rats; rat, in vivo, iv): No evidence of hepatic, renal, cardiac, or pulmonary injury | inhibition of NMDA receptors [2]: 53% | Hill coefficient, NMDA receptor inhibition [2]: ~1 | effect on NMDA receptor currents [2]: dose-dependently inhibited

L-carvone
bath concentration causing anesthesia (carp): 1.9 to 4.5 mM | plasma concentration relative to that for methyl salicylate ([1]; at the time general anesthesia was achieved): 3 times | mean plasma concentration (±SEM) during IV infusion ([1]; rats N=4, at loss of righting reflex and tail clamp response): 7900 ± 3000 µM | duration of general anesthesia effects (Sprague Dawley rats; 0.2 mL IV): 1 min | gross necropsy performed 2 days later (Sprague Dawley rats; 0.2 mL IV): No evidence of hepatic, renal, cardiac, or pulmonary injury | time after administration to awake and ambulatory (Sprague Dawley rats; 0.2 mL IV): ≤ 3 min | time to general anesthesia (loss of righting reflex and tail clamp response) (Sprague Dawley rats; 0.2 mL IV, approx. 300 g rats): ≤ 30 s | apnea after onset of anesthesia (Sprague Dawley rats; 0.4 mL IV): almost immediately | time from apnea to confirmed cardiac arrest (Sprague Dawley rats; 0.4 mL IV): 2 min | time to anesthesia (Sprague Dawley rats; 0.4 mL IV): ≤ 45 s | NMDA receptor current at highest concentration ([2]; 10 mM drug): near or complete loss of channel currents | greater inhibition of NMDA receptors and Nav1.2 channels than at the methyl salicylate plasma concentrations ([2]; at L-carvone plasma concentrations during anesthesia, NMDA and Nav1.2): 15-30% | inhibition of NMDA receptors [2]: 71% | Hill coefficient, NMDA receptor inhibition [2]: ~1 | effect on NMDA receptor currents [2]: dose-dependent inhibition
